Laboratory results reported in patent US20240294478A1, “ANTI-CANCER COMPOUNDS AND METHODS OF USE” (YALE UNIVERSITY, priority 2021, published 2024).
Like-named read-outs stand apart in the source and are kept apart here.

Tests used:
Format in all cases: cell-based, human
LN229 MGMT−/MMR+ cells = experiment: Short-term cell viability assay, LN229 MGMT-/MMR+; settings: for IC50: Homo sapiens, read-out: IC50 against LN229 cell lines, MGMT− MMR+; for MGMT− TI: Table III
Procedure: LN229 MGMT- and MGMT+ cell lines were a gift from B. Kaina (Johannes Gutenberg University Mainz, Mainz, Germany) and grown in Gibco® Duilbecco's Modified Eagle Medium with 10% fetal bovine serum (DMEM). For each compound tested, the relationship between MGMT status and MMR status and compound activity, in terms of IC50 values ([…]), was determined by the following method. On day 1, LN229 isogenic cells of varying MGMT and MMR status were seeded in 96 well format at a density of 2000 cells/well in 100 μL of DMEM media and allowed to adhere overnight. On day 2, a drug master plate was made with 100×the desired maximal concentration of test compound and serially diluted by 2 until 100×the minimal desired concentration, with one DMSO control. Then daughter plates were created with varied concentrations from 3-times the minimal concentration to 3-times the maximal desired concentration. Afterwards, 50 μL of daughter drug plate was added to 100 μL of the seeded cells for a final concentration of 1×in triplicate. Cells were allowed to grow for 6 days. On day 7, the cells were fixed, and stained with Hoechst nuclear dye and imaged to determine growth inhibition.
For each compound tested, the relationship between MGMT status and MMR status and compound activity, in terms of IC50 values (in μM), was determined. In addition, for each compound, the therapeutic index (TI) was calculated, according to the equation MGMT TI=IC50 (MGMT+/MMR+) divided by IC50 (MGMT−/MMR+). The T1 indicates the efficacy of a compound in treating the targeted MGMT-cancer cells as compared to potential for the same compound to damage, or have adverse effects against, normal cells which are MGMT+cells, The higher the value of the TI, the safer the compound is. […] MMR RI (resistance index)=IC50 (MGMT−/MMR−) divided by IC50 (MGMT−/MMR+). The higher the value of the RI, the less likely that resistance to the compound will develop.
(§1) Short-term Cell Viability Assay. Cells were seeded in 96-well plates at 1000 or 2000 cells/well and allowed to adhere at 23° C. for 60 min and then incubated overnight at 37° C. Cells were treated with indicated concentrations of compounds in triplicate for 4-6 days prior to fixation with 3.7% paraformaldehyde and nuclear staining with 1 μg/mL Hoechst 33342 dye. Cells were imaged on a Cytation 3 imaging reader (BioTek) and quantified using CellProfiler software. For in vitro short-term growth delay experiments, IC50 values were determined from the nonlinear regression equation, [inhibitor] vs normalized response with variable slope.

LN229 MGMT− shMSH3 cells = experiment: Short-term viability assay, LN229 MGMT- shMSH3; settings: for IC50: Homo sapiens, LN-229, Table III, read-out: IC50 against LN229 cell lines, MGMT− MMR−; for MGMT− RI: Table III
Procedure: The activity of KL-50 in MGMT-LN229 cells engineered to lack expression of other key MMR proteins including MSH6, MLH1, PMS2, and MSH3 was also confirmed. Western blotting was performed in LN229 MGMT+/−cells with stable expression of shRNA targeting MSH6, MLH1, PMS2, or MSH3 to confirm depletion of the shRNA targets. In shMSH6 cells, there was reduced expression of MSH2, and in shMLH1 cells, there was loss of PMS2, due to destabilization in the setting of loss of their heterodimeric partners. GAPDH serves as loading control. […] Short-term viability assay curves for KL-50 in LN229 MGMT+/−, MMR+/shMSH6 cells. […] Short-term viability assay curves for KL-50 in LN229 MGMT+/−, MMR+/shMLH1 cells. […] Short-term viability assay curves for KL-50 in LN229 MGMT+/−, MMR+/shPMS2 cells. […] Short-term viability assay curves for KL-50 in LN229 MGMT+/−, MMR+/shMSH3 cells.
MMR Protein shRNA Knockdown. pGIPZ lentiviral shRNA vectors targeting MSH2, MSH6, MLH1, PMS2, and MSH3 were purchased from Horizon Discovery (Table IV). Lentiviral particles were produced in HEK293T cells via co-transfection with lentiviral shRNA plasmid, pCMV-VSV-G envelope plasmid (Addgene, #8454) and psPAX2 packaging plasmid (Addgene, #12260), using Lipofectamine 3000 Reagent (Invitrogen, L3000001) per manufacturer's protocol. Viral particles were harvested 48 h post-transfection and used to transduce LN229 MGMT+/−cells in the presence of 8 μg/mL polybrene. Selection of pooled cells with lentiviral expression was established with 1 μg/mL puromycin 48 h post-transduction for 3 to 4 days. Single cell cloning was performed by limiting dilution and protein knockdown was confirmed by western blotting.
as §1

HCT116 MLH1−/− cells = experiment: Short-term viability assay, HCT116 MLH1-/- cells +/- O6BG; settings: with or without 10 μM O6BG pre-treatment
Procedure: FIG. 1B: Short-term viability assay curves for KL-50 in DLD1 MSH6-deficient cells pre-treated with 0.01% DMSO control (CTR) or 10 μM O^6BG (+O^6BG) for 1 h prior to KL-50 addition. […] Short-term viability assay curves for (FIG. 1E) KL-50 in HCT116 MLH1−/−cells or (FIG. 1F) HCT116 cells complemented with chromosome 3 carrying wildtype MLH1 (+Chr3) pre-treated with 0.01% DMSO control or 10 μM O^6BG (+O^6BG) for 1 h prior to KL-50 addition. […] For these figures, points, mean; error bars, SD; n>3 technical replicates.
as §1

NC(=O)c1ncn2c(=O)n(CCF)nnc12 [KL-50]
IC50 (LN229 MGMT−/MMR+ cells; LN-229, Table III, shRNA None): 13.2 ± 0.8 µM
IC50 (LN229 MGMT−/MMR+ cells; LN-229, Table II): 24.7 ± 4.1 µM
TI / RI, in words (LN229 MGMT−/MMR+ cells; LN229 isogenic lines): superior TI and RI
MGMT− TI (therapeutic index) (LN229 MGMT−/MMR+ cells; Table II, IC50 (MGMT+/MMR+) divided by IC50 (MGMT−/MMR+)): 24
MGMT− TI (LN229 MGMT−/MMR+ cells; shRNA None): 22
IC50 (LN229 MGMT− shMSH3 cells): 7.9 ± 0.3 µM
MGMT− RI (LN229 MGMT− shMSH3 cells): 0.6
cytotoxicity in HCT116 MLH1-deficient cells (HCT116 MLH1−/− cells): induced selective tumor cell killing specifically in the setting of O^6BG-induced MGMT suppression

Cn1nnc2c(C(N)=O)ncn2c1=O [TMZ, 4-methyl-5-oxo-2,3,4,6,8-pentazabicyclo[4.3.0]nona-2,7,9-triene-9-carboxamide, reference compound]
IC50 (LN229 MGMT−/MMR+ cells; LN-229, 144 h, Table 1, 6 days growth): 8.3 ± 3.5 µM
IC50 (LN229 MGMT−/MMR+ cells; LN-229, Table III, shRNA None): 5.1 ± 0.8 µM
IC50 (LN229 MGMT−/MMR+ cells; LN-229, Table II): 8.3 ± 3.5 µM
MGMT− TI (LN229 MGMT−/MMR+ cells; shRNA None): 137
IC50 (LN229 MGMT− shMSH3 cells): 3.1 ± 0.6 µM
MGMT− RI (LN229 MGMT− shMSH3 cells): 0.6
cytotoxicity in HCT116 MLH1-deficient cells (HCT116 MLH1−/− cells): inactive
